In publication PMC7179112, “Antimicrobial, Antioxidant, and Anticancer Activities of Some Novel Isoxazole Ring Containing Chalcone and Dihydropyrazole Derivatives” (Molecules, 2020):
≈ marks a conversion by molar mass, not a printed value.

Legend:
Human Normal Cells (L02) = assay: MTT assay toxicity on normal cells; type: cell-based
Candida tropicalis = assay: Antifungal activity, serial tube dilution method; type: cell-based; details: read-out: MIC C tropicalis
Method: (§1) The target chalcones (17–31) and pyrazolines (32–46) were tested for their antimicrobial activities by serial tube dilution method against two types of bacterial and fungal strains (Table 1 and Table 2). The bacterial strains used for the testing, including Gram-positive Staphylococcus aureus and Gram-negative Pseudomonas aeruginosa, whereas the fungal strains employed were Aspergillus niger and Candida tropicalis.
(§2) The antibacterial and antifungal activity of the novel chalcones (17 to 31) and dihydropyrazoles (32 to 46) against the selected bacterial and fungal strains was assessed by following the procedure described in our previous paper.

Aspergillus niger = assay: Antifungal activity, serial tube dilution method; type: cell-based
Method: as §1, §2

[1] = DPPH free radical scavenging assay; details: antioxidant activity; average of three independent experiments
Method: The antioxidant activity of all 30 compounds was assessed using 1,1-diphenyl-2-picrylhydrazine (DPPH) free radical scavenging assay and the results are the average of three independent experiments (Table 3). Gallic acid was employed as a positive control. […] In the disubstituted series (20–25), compound 25 with substitutions at position 3 and 5 on the phenyl ring gave the highest activity of 9 µg/mL.
The purpose of this study was to evaluate the antioxidant activity of chalcones and pyrazolines using the DPPH free radical assay. The percentage of antioxidant activity (AA%) of all the compounds was assessed by the DPPH free radical assay. The measurement of the DPPH radical scavenging activity was performed according to methodology described by Brand-Williams et al. The samples were reacted with the stable DPPH radical in an ethanol solution. A 0.1 mM solution of DPPH was prepared by dissolving DPPH in methanol. Gallic acid was taken as a reference standard and different concentrations of test samples (5–100 µg/mL) and standard (1.0, 2.5, and 5.0 µg/mL) were prepared using methanol. One milliliter of 0.1 mM DPPH solution was added to 3 mL of all concentrations of test samples and standard separately. These mixtures were kept in dark for about 30 min and the absorbance was measured at 517 nm. The capability to scavenge the DPPH radical was calculated using the formula:(1) DPPH scavanged (%)= Absorbance of control−Absorbance of sample/Absorbance of control∗100 when DPPH reacted with an antioxidant compound and was reduced, the change in color (from deep violet to light yellow) was read [Absorbance (Abs)] at 517 nm after […] of reaction using a UV-VIS spectrophotometer.

[2] = tested on: prostate cancer cell line, DU-145; assay: MTT assay anticancer activity; type: cell-based; details: for IC50: Homo sapiens, MTT assay, mean ± SD (n = 3); for Anticancer potency MIC: given as MIC in text/Figure 3
Method: All the 30 compounds were evaluated for their anticancer potency against the prostate cancer cell line, DU-145, employing colorimetric tetrazolium dye (MTT) assay. […] Among the disubstituted series 20–25, substitution at position 3 and 4 (compound 24) produced the best activity but was lower than the standard. […] Similar phenomena can be seen among the dihydropyrazole series.
The in vitro anticancer activity of chalcones (17 to 31) and dihydropyrazoles (32 to 46) was evaluated by the Mosmann’s MTT assay as described previously.

Pseudomonas aeruginosa = assay: Antibacterial activity, serial tube dilution method; type: cell-based; details: Pseudomonas aeruginosa; Gram-negative; serial tube dilution; read-out: MIC P aeruginosa
Method: as §1, §2

Staphylococcus aureus = assay: as above; type: cell-based; details: Staphylococcus aureus; Gram-positive; serial tube dilution; read-out: MIC S aureus
Method: as §1, §2

[3] = tested on: Staphylococcus aureus and Pseudomonas aeruginosa; assay: Antibacterial activity (strain not named); type: cell-based; details: for MIC: text/figure value, strain not named
Method: as §1, §2

[4] = tested on: Aspergillus niger and Candida tropicalis; assay: Antifungal activity (strain not named); type: cell-based; details: text/figure value, strain not named
Method: as §1, §2

| SMILES | IC50 (Human Normal Cells (L02)) | MIC (Candida tropicalis) | MIC (Aspergillus niger) | DPPH assay IC50 [1] | IC50 [2] | MIC (Pseudomonas aeruginosa) | MIC (Staphylococcus aureus) | MIC [3] | MIC [4] | fold improvement of antibacterial activity vs. 41 ([3]; 45 (MIC 8) vs. 41 (MIC 64)) | Anticancer potency MIC [2] |
| --- | --- | --- | --- | --- | --- | --- | --- | --- | --- | --- | --- |
| COc1ccc(/C=C/C(=O)c2ccno2)c(F)c1OC [Compound 30] | > 40 µg/mL | 16 µg/mL (≈ 57.7 µM) | 16 µg/mL (≈ 57.7 µM) | 45 ± 2 µg/mL | 5 ± 2 µg/mL (≈ 18 µM) | 4 µg/mL (≈ 14.4 µM) | 4 µg/mL (≈ 14.4 µM) |  |  |  |  |
| COc1ccc(C2CC(c3ccno3)=NN2C(N)=O)c(OC)c1OC (stereo not shown) [Compound 41] | > 40 µg/mL | 64 µg/mL (≈ 185 µM) | 64 µg/mL (≈ 185 µM) | 8 ± 1 µg/mL | 9 ± 1 µg/mL (≈ 26 µM) | 128 µg/mL (≈ 370 µM) | 64 µg/mL (≈ 185 µM) | 64 µg/mL (≈ 185 µM) |  |  |  |
| COc1cccc(OC)c1/C=C/C(=O)c1ccno1 [Compound 23] | > 40 µg/mL | 4 µg/mL (≈ 15.4 µM) | 4 µg/mL (≈ 15.4 µM) | 16 ± 1 µg/mL | 33 ± 2 µg/mL (≈ 127 µM) | 4 µg/mL (≈ 15.4 µM) | 4 µg/mL (≈ 15.4 µM) |  |  |  |  |
| O=C(O)c1cn(C2CC2)c2cc(N3CCNCC3)c(F)cc2c1=O [Ciprofloxacin, reference compound] |  |  |  |  |  | 2 µg/mL (≈ 6.04 µM) | 2 µg/mL (≈ 6.04 µM) |  |  |  |  |
| COc1ccc(C2CC(c3ccno3)=NN2C(N)=O)cc1 (stereo not shown) [Compound 32] | > 40 µg/mL | 4 µg/mL (≈ 14 µM) | 4 µg/mL (≈ 14 µM) | 44 ± 1 µg/mL | 28 ± 1 µg/mL (≈ 97.8 µM) | 16 µg/mL (≈ 55.9 µM) | 16 µg/mL (≈ 55.9 µM) |  | 4 µg/mL (≈ 14 µM) |  |  |
| COc1ccc(C2CC(c3ccno3)=NN2C(N)=O)c(F)c1OC (stereo not shown) [Compound 45] | > 40 µg/mL | 1 µg/mL (≈ 2.99 µM) | 0.5 µg/mL (≈ 1.5 µM) | 55 ± 2 µg/mL | 2 ± 1 µg/mL (≈ 5.98 µM) | 8 µg/mL (≈ 23.9 µM) | 8 µg/mL (≈ 23.9 µM) | 8 µg/mL (≈ 23.9 µM) |  | 8 fold | 2 µg/mL |
| COc1cc(OC)cc(C2CC(c3ccno3)=NN2C(N)=O)c1 (stereo not shown) [Compound 40] | > 40 µg/mL | 64 µg/mL (≈ 202 µM) | 64 µg/mL (≈ 202 µM) | 12 ± 1 µg/mL | 8 ± 2 µg/mL (≈ 25.3 µM) | 256 µg/mL (≈ 809 µM) | 256 µg/mL (≈ 809 µM) |  |  |  |  |
| COc1cccc(/C=C/C(=O)c2ccno2)c1OC [Compound 20] | > 40 µg/mL | 32 µg/mL (≈ 123 µM) | 64 µg/mL (≈ 247 µM) | 24 ± 1 µg/mL | 22 ± 1 µg/mL (≈ 84.9 µM) | 64 µg/mL (≈ 247 µM) | 32 µg/mL (≈ 123 µM) |  |  |  |  |
| CC(=O)O[C@@]12CO[C@@H]1C[C@H](O)[C@@]1(C)C(=O)[C@H](O)C3=C(C)[C@@H](OC(=O)[C@H](O)[C@@H](NC(=O)OC(C)(C)C)c4ccccc4)C[C@@](O)([C@@H](OC(=O)c4ccccc4)[C@H]21)C3(C)C [Docetaxel, reference compound] |  |  |  |  | 5 µg/mL (≈ 6.19 µM) |  |  |  |  |  | 5 µg/mL |
| COc1cc(OC)c(C2CC(c3ccno3)=NN2C(N)=O)cc1OC (stereo not shown) [Compound 42] | > 40 µg/mL | 16 µg/mL (≈ 46.2 µM) | 16 µg/mL (≈ 46.2 µM) | 10 ± 2 µg/mL | 18 ± 2 µg/mL (≈ 52 µM) | 16 µg/mL (≈ 46.2 µM) | 32 µg/mL (≈ 92.4 µM) |  |  |  |  |
| COc1cc(Cl)c(/C=C/C(=O)c2ccno2)c(OC)c1 [Compound 31] | > 40 µg/mL | 4 µg/mL (≈ 13.6 µM) | 4 µg/mL (≈ 13.6 µM) | 48 ± 1 µg/mL | 16 ± 2 µg/mL (≈ 54.5 µM) | 2 µg/mL (≈ 6.81 µM) | 2 µg/mL (≈ 6.81 µM) |  |  |  |  |
| COc1ccc(/C=C/C(=O)c2ccno2)cc1 [Compound 17] | > 40 µg/mL | 8 µg/mL (≈ 34.9 µM) | 8 µg/mL (≈ 34.9 µM) | 33 ± 1 µg/mL | 32 ± 2 µg/mL (≈ 140 µM) | 8 µg/mL (≈ 34.9 µM) | 4 µg/mL (≈ 17.4 µM) |  |  |  |  |
| COc1cc(OC)c(OC)cc1/C=C/C(=O)c1ccno1 [Compound 27] | > 40 µg/mL | 32 µg/mL (≈ 111 µM) | 32 µg/mL (≈ 111 µM) | 7 ± 2 µg/mL | 26 ± 3 µg/mL (≈ 89.9 µM) | 16 µg/mL (≈ 55.3 µM) | 16 µg/mL (≈ 55.3 µM) |  |  |  |  |
| COc1cccc(OC)c1C1CC(c2ccno2)=NN1C(N)=O (stereo not shown) [Compound 38] | > 40 µg/mL | 2 µg/mL (≈ 6.32 µM) | 2 µg/mL (≈ 6.32 µM) | 28 ± 1 µg/mL | 20 ± 2 µg/mL (≈ 63.2 µM) | 16 µg/mL (≈ 50.6 µM) | 32 µg/mL (≈ 101 µM) |  | 2 µg/mL (≈ 6.32 µM) |  |  |
